For four compounds, IC50 results are on record in article PMC7366380, “Discovery of a Potent and Selective Covalent Inhibitor and Activity-Based Probe for the Deubiquitylating Enzyme UCHL1, with Antifibrotic Activity” (Journal of the American Chemical Society, 2020).

A word on the IC50: it is the concentration that gives 50% inhibition.

One assay has as its target T1, USP25 (Homo sapiens, UniProt Q9UHP3).
T1 sequence (Q9UHP3 1-1055): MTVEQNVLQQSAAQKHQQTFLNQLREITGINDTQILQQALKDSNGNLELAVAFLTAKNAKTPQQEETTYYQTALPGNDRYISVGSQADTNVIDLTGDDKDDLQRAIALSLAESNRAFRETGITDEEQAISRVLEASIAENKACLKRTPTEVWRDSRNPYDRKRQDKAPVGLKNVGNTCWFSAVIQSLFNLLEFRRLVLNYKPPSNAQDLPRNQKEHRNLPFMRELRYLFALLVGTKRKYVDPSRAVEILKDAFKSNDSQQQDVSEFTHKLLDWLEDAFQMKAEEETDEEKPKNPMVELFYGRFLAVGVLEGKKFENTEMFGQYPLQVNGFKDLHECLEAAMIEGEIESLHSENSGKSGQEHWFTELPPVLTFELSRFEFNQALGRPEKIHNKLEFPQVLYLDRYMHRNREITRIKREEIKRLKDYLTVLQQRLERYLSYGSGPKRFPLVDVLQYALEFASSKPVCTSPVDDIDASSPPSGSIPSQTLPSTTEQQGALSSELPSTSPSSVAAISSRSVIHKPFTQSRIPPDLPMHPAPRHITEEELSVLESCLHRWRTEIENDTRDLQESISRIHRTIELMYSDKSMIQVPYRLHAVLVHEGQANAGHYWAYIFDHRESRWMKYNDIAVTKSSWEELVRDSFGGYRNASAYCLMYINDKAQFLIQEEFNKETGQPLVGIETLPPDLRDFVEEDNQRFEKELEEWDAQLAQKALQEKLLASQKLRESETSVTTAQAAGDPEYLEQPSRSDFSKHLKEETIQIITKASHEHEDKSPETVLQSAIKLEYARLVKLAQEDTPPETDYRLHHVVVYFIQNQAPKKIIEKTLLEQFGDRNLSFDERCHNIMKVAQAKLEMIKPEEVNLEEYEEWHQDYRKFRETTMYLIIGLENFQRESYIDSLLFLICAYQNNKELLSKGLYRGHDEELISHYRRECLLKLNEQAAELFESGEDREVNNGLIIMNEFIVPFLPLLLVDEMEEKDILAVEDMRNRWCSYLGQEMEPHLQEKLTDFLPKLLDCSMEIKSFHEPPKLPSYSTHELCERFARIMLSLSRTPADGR
In words: Biochemical DUB selectivity profiling assay: USP25. The following applies: Ub-Lys-TAMRA 50 nM, buffer B; read-out: Biochemical IC50 range, USP25. As to the method:
(§1) DUB Assay Substrate Substrate
(§2) Buffer Concentration (nM) […]
(§3) Sepharose® 4B resin (GE Healthcare).
(§4) 10 kDa molecular weight cut-off (MWCO)).
(§5) Fractions containing protein
(§6) Protein concentration was […]
(§7) reaction volume of 21 μL. […]
(§8) compound (final concentration 5 nM).
(§9) IC50 values were determined
(§10) Biochemical DUB selectivity profiling assays […]
(§11) in 40 µL total reaction volume.

In a further assay the target is T2, USP4 (Homo sapiens, UniProt Q13107).
T2 sequence (Q13107 1-963): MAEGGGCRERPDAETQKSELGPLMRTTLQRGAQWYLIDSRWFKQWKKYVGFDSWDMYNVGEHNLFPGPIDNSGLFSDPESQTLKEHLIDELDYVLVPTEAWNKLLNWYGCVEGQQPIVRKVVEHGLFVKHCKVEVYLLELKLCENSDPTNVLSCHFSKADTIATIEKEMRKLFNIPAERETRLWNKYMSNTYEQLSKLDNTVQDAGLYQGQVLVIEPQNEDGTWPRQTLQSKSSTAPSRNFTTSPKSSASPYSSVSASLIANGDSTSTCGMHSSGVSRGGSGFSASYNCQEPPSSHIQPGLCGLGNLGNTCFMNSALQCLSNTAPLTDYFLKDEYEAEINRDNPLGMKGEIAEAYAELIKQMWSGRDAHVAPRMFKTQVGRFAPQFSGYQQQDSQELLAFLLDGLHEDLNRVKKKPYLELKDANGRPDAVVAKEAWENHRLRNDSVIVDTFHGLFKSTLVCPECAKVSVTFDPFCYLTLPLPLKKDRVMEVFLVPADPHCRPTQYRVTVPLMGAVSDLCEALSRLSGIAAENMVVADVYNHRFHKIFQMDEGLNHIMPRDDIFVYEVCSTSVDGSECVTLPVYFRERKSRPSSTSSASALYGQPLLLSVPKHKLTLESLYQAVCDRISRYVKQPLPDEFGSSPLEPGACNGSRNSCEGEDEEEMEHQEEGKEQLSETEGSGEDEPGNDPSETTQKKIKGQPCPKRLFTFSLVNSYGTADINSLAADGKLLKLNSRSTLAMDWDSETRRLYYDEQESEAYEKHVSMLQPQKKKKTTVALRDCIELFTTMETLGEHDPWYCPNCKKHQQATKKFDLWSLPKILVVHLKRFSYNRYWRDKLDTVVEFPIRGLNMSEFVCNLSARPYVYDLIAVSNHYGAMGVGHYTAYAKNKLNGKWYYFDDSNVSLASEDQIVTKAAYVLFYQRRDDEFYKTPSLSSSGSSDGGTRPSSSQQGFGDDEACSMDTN
In words: Biochemical DUB selectivity profiling assay: USP4. The following applies: Ub-Lys-TAMRA 50 nM, buffer A; read-out: Biochemical IC50 range, USP4. As to the method:
as §1, §2, §3, §4, §5, §6, §7, §8, §9, §10, §11

The target in a further assay is T3, UCHL5 (Homo sapiens, UniProt Q9Y5K5).
T3 sequence (Q9Y5K5 1-329): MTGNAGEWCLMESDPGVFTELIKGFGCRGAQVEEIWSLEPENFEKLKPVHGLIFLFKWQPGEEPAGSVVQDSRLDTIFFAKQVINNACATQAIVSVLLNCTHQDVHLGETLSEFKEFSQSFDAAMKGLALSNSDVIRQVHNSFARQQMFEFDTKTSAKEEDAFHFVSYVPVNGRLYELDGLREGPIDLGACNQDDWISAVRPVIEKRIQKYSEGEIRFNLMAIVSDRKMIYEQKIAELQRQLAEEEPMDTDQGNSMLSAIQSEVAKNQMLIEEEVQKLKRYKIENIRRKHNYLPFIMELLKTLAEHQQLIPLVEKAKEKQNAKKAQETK
Put plainly: biochemical.

With `N#CN1CCC[C@H]1C(=O)N1CCc2c(-c3c[nH]c4ncccc34)cccc21` [Compound 1], the IC50 on USP25, on USP4 and on UCHL5 was more than 10 µM each time.

For `C#Cc1cnc2[nH]cc(-c3cccc4c3CCN4C(=O)[C@@H]3CCCN3C#N)c2c1` [Compound 2], the IC50 at USP25 and on USP4 was more than 10 µM throughout.

Turning to `N#CN1CCC[C@@H]1C(=O)N1CCc2c(-c3c[nH]c4ncccc34)cccc21` [Compound 3], the 50% inhibitory concentration (IC50) at USP25, at USP4 and at UCHL5 was more than 10 µM each time.

For `CC(=O)O/N=C1\C(=O)N(Cc2cc(Cl)ccc2Cl)c2ccc(Cl)cc21` [LDN-57444, reference compound], the IC50 at USP25, at USP4 and against UCHL5 was more than 10 µM throughout.
